Data reported in patent US11077100B2, “Tetrahydroquinoline derivatives as P2X7 receptor antagonists” (RaQualia Pharma Inc., priority 2017, dated 2021).

Biological target: human P2X7 (Homo sapiens (Human), UniProt Q99572)
Test: Human P2X7 functional assay (Ca2+ influx, Fluo-4, FDSS)
Assay type: cell-based
Details: antagonistic activity with respect to the human P2X7 receptor; BzATP final concentration 80 microM
Procedure: The ability of the 5,6,7,8-tetrahydroquinoline and 6,7-dihydro-5H-cyclopenta[b]pyridine derivatives of the formula (I) to inhibit the P2X7 channel was measured by Ca^2+ influx assay and electrophysiology assay described below.
Human P2X7 Functional Assay
The functional activity of compounds was determined by measuring changes in intracellular calcium concentration using a Ca^2+-sensitive fluorescent dye, Fluo-4 (Molecular Probes). The changes in fluorescent signal were monitored by the cell imaging technology by Hamamatsu Photonics's Functional Drug Screening System (FDSS). Increases in intracellular Ca^2+ concentration were readily detected upon activation with BzATP.
HEK293 cells stably expressing human P2X7 (GenBank accession number BC011913) carrying a C-terminal FLAG tag were grown in T225 flasks, in a 5% CO2 humidified incubator to about 80% confluence. Media composition consisted of Dulbecco's Modified Eagle Medium (high glucose), 10% fetal bovine serum ([…]), 100 units/[…] Penicillin, 100 microg/mL Streptomycin and 250 microg/mL Geneticine.
1. Plate-out HEK293-human P2X7 cells (40 microL medium containing 10,000 cells per well) into poly-D-lysine coated 384-well plates (Corning) at 24 h prior to assay.
2. Incubate at 37° C. in 5% CO2.
3. Incubate the plate at 37° C. in 5% CO2 for 1 h.
5. Test compounds were prepared at 100× the test concentration in DMSO by serial dilution with Biomek-FX liquid handling instrument. 33× diluted compound solutions in assay buffer were prepared in intermediate compound plate with Biomek-NX liquid handling instrument. A further 3× dilution occurred in below steps 6 and 7.
6. Add 20 microL of 33× diluted compound solutions into each well and leave the plate for 10 min under the dark at room temperature.
7. Measure activity by FDSS as follows: • Set the assay plate on the stacker of FDSS. • Start the detection of fluorescence intensity at 540 nm by 480 nm exicitation. • After 30 seconds, add 20 microL of assay buffer containing 240 microM BzATP (final concentration 80 microM).
IC50 values for compounds of the present invention were determined from 7-point dose-response studies. Curves were generated using the average of duplicate wells for each data point. Finally, the IC50 values are calculated with the best-fit dose curve determined by XLfit (ID Business Solutions Ltd.).

Chain of human P2X7 (Q99572 whole entry): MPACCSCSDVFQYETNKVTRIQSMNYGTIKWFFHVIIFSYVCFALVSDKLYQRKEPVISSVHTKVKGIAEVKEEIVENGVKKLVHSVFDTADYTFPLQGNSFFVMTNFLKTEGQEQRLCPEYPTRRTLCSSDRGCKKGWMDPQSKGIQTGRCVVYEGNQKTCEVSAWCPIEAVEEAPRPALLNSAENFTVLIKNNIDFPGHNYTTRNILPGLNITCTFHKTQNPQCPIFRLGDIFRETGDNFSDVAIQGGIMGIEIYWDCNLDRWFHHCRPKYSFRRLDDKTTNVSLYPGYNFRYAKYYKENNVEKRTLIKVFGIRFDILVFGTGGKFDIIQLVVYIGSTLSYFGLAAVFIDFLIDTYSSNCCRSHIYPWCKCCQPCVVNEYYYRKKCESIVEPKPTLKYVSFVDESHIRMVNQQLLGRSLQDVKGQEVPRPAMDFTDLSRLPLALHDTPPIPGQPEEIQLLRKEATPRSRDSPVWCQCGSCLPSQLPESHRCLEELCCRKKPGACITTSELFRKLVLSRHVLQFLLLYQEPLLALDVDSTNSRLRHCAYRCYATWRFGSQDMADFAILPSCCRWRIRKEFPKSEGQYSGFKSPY

Row | IC50 | Compound
1 | 1000 to 3000 nM | O=C(NCC(c1ccccc1)N1CCOCC1)[C@]1(F)CC[C@H](O)c2ncccc21 (mixture of isomers) [Example 235, (5S,8S)-5-fluoro-8-hydroxy-N-((rac)-2-morpholino-2-phenylethyl)-5,6,7,8-tetrahydroquinoline-5-carboxamide]
2 | < 50 nM | O=C1CCC(C(=O)NCc2c(Cl)cc(Cl)cc2CO)c2cccnc21 (stereo not drawn) [Example 4, N-(2,4-dichloro-6-(hydroxy-methyl)benzyl)-8-oxo-5,6,7,8-tetrahydroquinoline-5-carboxamide]
3 | 1000 to 3000 nM | O=C1CCC(C(=O)NCC2CCCCCC2)c2cccnc21 (stereo not drawn) [Example 5, N-(cycloheptylmethyl)-8-oxo-5,6,7,8-tetrahydro-quinoline-5-carboxamide]
4 | 50 to 100 nM | O=C1CC(C(=O)NCc2cccc(C(F)(F)F)c2Cl)c2cccnc21 (stereo not drawn) [Example 17, N-(2-chloro-3-(trifluoromethyl)benzyl)-7-oxo-6,7-dihydro-5H-cyclopenta[b] pyridine-5-carboxamide]
5 | < 50 nM | Cc1cc(Cl)cc(Cl)c1CNC(=O)C1CCC(CC(=O)O)c2ncccc21 (stereo not drawn) [Example 30, 2-(5-((2,4-dichloro-6-methyl-benzyl)carbamoyl)-5,6,7,8-tetrahydroquinolin-8-yl) acetic acid]
6 | 50 to 100 nM | O=C(O)CC1CCC(C(=O)NCc2cccc(C(F)(F)F)c2Cl)c2cccnc21 (stereo not drawn) [Example 31, 2-(5-((2-chloro-3-(trifluoro-methyl)benzyl)carbamoyl)-5,6,7,8-tetrahydroquinolin-8-yl)acetic acid]
7 | 101 to 300 nM | Cc1cc(Cl)cc(Cl)c1CNC(=O)[C@H]1CC[C@H](O)c2ncccc21 [Example 63, (5S,8S)-N-(2,4-dichloro-6-methylbenzyl)-8-hydroxy-5,6,7,8-tetrahydro-quinoline-5-carboxamide]
8 | < 50 nM | Cc1cc(Cl)cc(Cl)c1CNC(=O)C1CC[C@H](O)c2ncccc21 (stereo partly drawn) [Example 64, (5R,8S)-N-(2,4-dichloro-6-methylbenzyl)-8-hydrdroxy-5,6,7,8-tetra-hydroxyquinoline-5-carboxamide]
9 | 301 to 1000 nM | O=C(NCc1ccc(Cl)cc1Cl)[C@H]1CC[C@H](O)c2ncccc21 [Example 65, (5S,8S)-N-(2,4-dichloro-benzyl)-8-hydroxy-5,6,7,8-tetrahydroquinoline-5-carboxamide]
10 | 301 to 1000 nM | O=C(NCc1c(F)cc(Cl)cc1Cl)[C@H]1CC[C@H](O)c2ncccc21 [Example 69, (5S,8S)-N-(2,4-dichloro-6-fluorobenzyl)-8-hy-droxy-5,6,7,8-tetrahydro-quinoline-5-carboxamide]
11 | 301 to 1000 nM | O=C(NCc1ccc(F)c(F)c1F)[C@H]1CC[C@H](O)c2ncccc21 [Example 71, (5S,8S)-8-hydroxy-N-(2,3,4-trifluorobenzyl)-5,6,7,8-tetrahydroquinoline-5-carboxamide]
12 | 101 to 300 nM | O=C(NCc1c(F)cc(F)cc1F)[C@@H]1CC[C@H](O)c2ncccc21 [Example 73, (5R,8S)-8-hydroxy-N-(2,4,6-trifluorobenzyl)-5,6,7,8-tetrahydroquinoline-5-carboxamide]
13 | 1000 to 3000 nM | O=C(NCc1ccc(F)cc1C(F)(F)F)[C@H]1CC[C@H](O)c2ncccc21 [Example 75, (5S,8S)-N-(4-fluoro-2-(tri-fluoromethyl)benzyl)-8-hydroxy-5,6,7,8-tetra-hydroquinoline-5-carbox-amide]
14 | 301 to 1000 nM | O=C(NCc1ccc(Cl)cc1F)[C@H]1CC[C@H](O)c2ncccc21 [Example 77, (5S,8S)-N-(4-chloro-2-fluorobenzyl)-8-hydroxy-5,6,7,8-tetrahydroquinoline-5-carboxamide]
15 | 301 to 1000 nM | O=C(NCc1ccc(Br)cc1F)[C@H]1CC[C@H](O)c2ncccc21 [Example 79, (5S,8S)-N-(4-bromo-2-fluorobenzyl)-8-hydroxy-5,6,7,8-tetrahydroquinoline-5-carboxamide]
16 | 101 to 300 nM | O=C(NCc1cccc(C(F)(F)F)c1Cl)[C@H]1CC[C@H](O)c2ncccc21 [Example 86, (5S,8S)-N-(2-chloro-3-(trifluoromethyl)benzyl)-8-hydroxy-5,6,7,8-tetra-hydroxyqinoline-5-carboxamide]

Row | IC50 | Compound
17 | 101 to 300 nM | O=C(NCc1ccc(F)cc1Cl)[C@H]1CC[C@@H](O)c2ncccc21 [Example 90, (5S,8R)-N-(2-chloro-4-fluorobenzyl)-8-hydroxy-5,6,7,8-tetrahydroquinoline-5-carboxamide]
18 | 101 to 300 nM | O=C(NCc1c(F)cc(Cl)cc1Cl)[C@@H]1CC[C@@H](O)c2ncccc21 [Example 91, (5R,8R)-N-(2,4-dichloro-6-fluorobenzyl)-8-hy-droxy-5,6,7,8-tetrahydro-quinoline-5-carboxamide]
19 | 101 to 300 nM | O=C(NCc1c(F)cc(Cl)cc1Cl)[C@H]1CC[C@@H](O)c2ncccc21 [Example 92, (5S,8R)-N-(2,4-dichloro-6-fluorobneyzl)-8-hy-droxy-5,6,7,8-tetrahydro-quinoline-5-carboxamide]
20 | 1000 to 3000 nM | O=C(NCc1ccc(F)c(F)c1F)[C@@H]1CC[C@@H](O)c2ncccc21 [Example 93, (5R,8R)-8-hydroxy-N-(2,3,4-trifluorobenzyl)-5,6,7,8-tetrahydroquinoline-5-carboxamide]
21 | 1000 to 3000 nM | O=C(NCc1ccc(F)c(F)c1F)[C@H]1CC[C@@H](O)c2ncccc21 [Example 94, (5S,8R)-8-hydroxy-N-(2,3,4-trifluorobenzyl)-5,6,7,8-tetrahydroquinoline-5-carboxamide]
22 | 1000 to 3000 nM | O=C(NCc1ccc(Cl)cc1F)[C@@H]1CC[C@@H](O)c2ncccc21 [Example 95, (5R,8R)-N-(4-chloro-2-fluorobenzyl)-8-hydroxy-5,6,7,8-tetrahydroquinoline-5-carboxamide]
23 | 1000 to 3000 nM | O=C(NCc1ccc(Cl)cc1F)[C@H]1CC[C@@H](O)c2ncccc21 [Example 96, (5S,8R)-N-(4-chloro-2-fluorobenzyl)-8-hydroxy-5,6,7,8-tetrahydroquinoline-5-carboxamide]
24 | 101 to 300 nM | Cc1cc(Cl)cc(Cl)c1CNC(=O)[C@H]1C[C@@H](O)c2ncccc21 [Example 98, (5S,7R)-N-(2,4-dichloro-6-methylbenzyl)-7-hy-droxy-6,7-dihydro-5H-cyclopenta[b]pyridin-5-carboxamide]
25 | < 50 nM | Cc1cc(Cl)cc(Cl)c1CNC(=O)[C@@]1(F)CC[C@H](O)c2ncccc21 [Example 99, (5R,8S)-N-(2,4-dichloro-6-methylbenzyl)-5-fluoro-8-hydroxy-5,6,7,8-tetrahydroquinoline-5-carboxamide]
26 | 101 to 300 nM | O=C(NCc1cccc(C(F)(F)F)c1Cl)[C@@]1(F)CC[C@H](O)c2ncccc21 [Example 101, (5R,8S)-N-(2-chloro-3-(trifluoromethyl)benzyl)-5-fluoro-8-hydroxy-5,6,7,8-tetrahydroquinoline-5-carboxamide]
27 | 101 to 300 nM | O=C(NCc1c(Cl)cc(Cl)cc1CO)[C@@]1(F)CC[C@H](O)c2ncccc21 [Example 103, (5R,8S)-N-(2,4-dichloro-6-hydroxymethylbenzyl)-5-fluoro-8-hydroxy-5,6,7,8-tetrahydroquinoline-5-carboxamide]
28 | 301 to 1000 nM | O=C(NCc1ccc(Cl)cc1Cl)[C@@]1(F)CC[C@H](O)c2ncccc21 [Example 105, (5R,8S)-N-(2,4-dichlorobenzyl)-5-fluoro-8-hydroxy-5,6,7,8-tetrahydroquinoline-5-carboxamide]
29 | 301 to 1000 nM | O=C(NCc1ccc(F)cc1F)[C@]1(F)CC[C@@H](O)c2ncccc21 [Example 109, (5S,8R)-N-(2,4-difluoro-benzyl)-5-fluoro-8-hydroxy-5,6,7,8-tetrahydroquinoline-5-carboxamide]
30 | 101 to 300 nM | O=C(NCc1c(Cl)cc(C(F)(F)F)cc1Cl)[C@@]1(F)CC[C@H](O)c2ncccc21 [Example 112, (5R,8S)-N-(2,6-dichloro-4-(trifluoromethyl)benzyl)-5-fluoro-8-hydroxy-5,6,7,8-tetrahydroquinoline-5-carboxamide]
31 | < 50 nM | O=C(NCc1c(Cl)cc(C(F)(F)F)cc1Cl)[C@]1(F)CC[C@@H](O)c2ncccc21 [Example 113, (5S,8R)-N-(2,6-dichloro-4-(trifluoromethyl)benzyl)-5-fluoro-8-hydroxy-5,6,7,8-tetrahydroquinoline-5-carboxamide]
32 | 101 to 300 nM | O=C(NCc1c(Cl)cc(Cl)cc1C(F)F)[C@@]1(F)CC[C@H](O)c2ncccc21 [Example 114]

Row | Compound | IC50
33 | Cc1cc(Cl)cc(Cl)c1CNC(=O)C1(O)CCC(=O)c2ncccc21 (stereo not drawn) [Example 15, N-(2,4-dichloro-6-methylbenzyl)-5-hydroxy-8-oxo-5,6,7,8-tetrahydro-quinoline-5-carboxamide] | 301 to 1000 nM
